Where two headings read alike, the source gives them in different places.

For series [1], the target named is T1, FLT3 receptor (MV4-11 cell line bearing an FLT3ITD mutant) (Homo sapiens, UniProt P36888, INS600HVDFREYEYD).
T1 construct: MV4-11 cell line, which line is established from a leukaemia of constitutively active AML type bearing an FLT3ITD mutant; endogenous in cells; host or cells: MV4-11
T1 sequence (P36888 with tags, fused parts or gaps INS600HVDFREYEYD): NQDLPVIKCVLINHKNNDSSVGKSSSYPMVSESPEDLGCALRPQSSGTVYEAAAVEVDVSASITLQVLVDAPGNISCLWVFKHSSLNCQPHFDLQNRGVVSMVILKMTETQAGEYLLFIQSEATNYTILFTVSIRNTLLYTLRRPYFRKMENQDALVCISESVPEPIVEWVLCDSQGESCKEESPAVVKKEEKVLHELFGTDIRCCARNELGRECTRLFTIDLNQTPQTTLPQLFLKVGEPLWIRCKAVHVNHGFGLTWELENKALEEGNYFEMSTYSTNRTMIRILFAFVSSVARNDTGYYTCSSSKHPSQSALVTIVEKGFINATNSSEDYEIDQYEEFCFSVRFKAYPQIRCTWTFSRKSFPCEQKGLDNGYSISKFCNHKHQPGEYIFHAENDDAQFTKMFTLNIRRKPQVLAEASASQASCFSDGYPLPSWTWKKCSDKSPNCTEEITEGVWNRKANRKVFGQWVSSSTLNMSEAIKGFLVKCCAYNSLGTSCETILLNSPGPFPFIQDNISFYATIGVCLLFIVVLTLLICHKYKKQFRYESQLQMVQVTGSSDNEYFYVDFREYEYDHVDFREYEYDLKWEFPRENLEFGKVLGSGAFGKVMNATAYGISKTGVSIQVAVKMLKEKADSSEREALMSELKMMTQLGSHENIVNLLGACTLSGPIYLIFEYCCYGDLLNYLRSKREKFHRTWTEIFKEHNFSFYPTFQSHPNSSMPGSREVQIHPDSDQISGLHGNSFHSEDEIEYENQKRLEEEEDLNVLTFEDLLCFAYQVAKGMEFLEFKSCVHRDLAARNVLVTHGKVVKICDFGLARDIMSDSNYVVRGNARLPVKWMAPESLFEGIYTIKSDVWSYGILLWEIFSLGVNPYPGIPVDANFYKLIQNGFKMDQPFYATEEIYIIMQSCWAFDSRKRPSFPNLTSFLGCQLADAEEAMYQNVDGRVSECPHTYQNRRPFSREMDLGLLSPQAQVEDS
In words: Inhibition of FLT3 receptor tyrosine kinase activity: proliferation of MV4-11 cells (CellTiter-Glo, 72 h). It is filed as cell-based. The conditions noted are these: 72 hours incubation, read-out: IC50 (concentration that inhibits 50% of the proliferation of the MV4-11 cells). On the procedure: Measurement of Inhibition of the Tyrosine Kinase Activity of the FLT3 Receptor
The inhibitory effect of the compounds according to the invention towards the tyrosine kinase activity of the FLT3 receptor was evaluated on an MV4-11 cell line, which line is established from a leukaemia of constitutively active AML type bearing an FLT3ITD mutant. The inhibitory activity is correlated to the inhibition of cell growth, according to the protocols described by Spiekermann, K. et al., Blood, 2003, 101, (4) 1494-1504 and O'Farrell, A.-M. et al., Blood, 2003, 101, (9) 3597-3605.
(§1) MV4-11 cells are washed with PBS buffer and inoculated in 96-well plates, at a density of 1×10^5 cells/ml (100 μL per well), in RPMI 1640 containing 10% FCS, in the presence or absence of the test compounds. After incubation for 72 hours, the viable cells are quantified by measuring the cellular ATP by means of the CellTiter-Glo® kit (Promega, Cat G7571). The cells are treated according to the instructions given by the kit manufacturer, and the luminescence is measured using a Luminoskan (Ascent, Labsystem) with the following parameters: measurement: single; integration time: 1000 ms, lag time: 5 s.
The inhibitory activity with respect to the FLT3 receptor is given by the concentration that inhibits 50% of the proliferation of the MV4-11 cells.
(In general: In ATP-based viability assays light output follows the ATP content of the culture.)

Series [2] addresses fusion protein FIP1L1-PDGF-Rα (EOL-1 cell line) (Homo sapiens, UniProt P16234). In words: Inhibition of PDGF alpha receptor tyrosine kinase activity: proliferation of EOL-1 cells (CellTiter-Glo, 72 h). It counts as cell-based. On the procedure:
Measurement of Inhibition of the Tyrosine Kinase Activity of the PDGF Alpha Receptor: The inhibitory effect of the compounds according to the invention towards the tyrosine kinase activity of the PDGF alpha receptor was evaluated on the EOL-1 cell line, which line is established from a leukaemia of constitutively active chronic eosinophilic leukaemia (CEL) type. The EOL-1 line has been described as expressing the fusion protein FIP1L1-PDGF-Rα and is sensitive to kinase inhibitors in proliferation tests (Cools J. et al., Blood 2004, 103, […]). The inhibitory activity is correlated to the inhibition of cell growth. […] After incubation for 72 hours, the viable cells are quantified by measuring the cellular ATP by means of the CellTiter-Glo® kit (Promega, Cat G7571). The cells are treated according to the instructions given by the kit manufacturer, and the luminescence is measured using a Luminoskan (Ascent, Labsystem) with the following parameters: measurement: single; integration time: 1000 ms, lag time: 5 s. It is thus seen that the compounds according to the invention have inhibitory activity on the tyrosine kinase activity of PDGF-Rα. This activity is given by the concentration that inhibits 50% of the proliferation of the EOL-1 cells.

Series [3] has as its target T2, fusion protein Tel/PDGF-Rβ (BaF3 Tel/PDGF cells) (Homo sapiens, UniProt P09619).
T2 construct: the transmembrane and intracellular part of the PDGF-Rβ receptor; N-terminal part of the Tel transcription factor (ETV6); expressed in transfected cells; host or cells: murine haematopoietic cell line BaF/3; the other entry of the earlier key: ETV6 (P41212, Transcription factor ETV6)
In words: Inhibition of PDGF-Rβ tyrosine kinase activity: proliferation of BaF3 Tel/PDGF cells (CellTiter-Glo, 72 h). It counts as cell-based, murine. The conditions noted are these: 72 hours incubation, read-out: IC50 (concentration that inhibits 50% of the proliferation of the BaF3 Tel/PDGF cells). The procedure:
Measurement of Inhibition of the Tyrosine Kinase Activity of the PDGF Beta (PDGF-Rβ) (Baf-3 tel/PDGFIRβ) Receptor:
This test consists in evaluating the effects of the compounds on the tyrosine kinase activity of the PDGF beta receptor.
The inhibitory effect of the compounds according to the invention towards the tyrosine kinase activity of the PDGF-R receptor was evaluated on the murine haematopoietic cell line BaF/3 transfected with a plasmid coding for the fusion protein Tel/PDGF-Rβ. This fusion protein is found in chronic myelomonocytic myeloid leukaemias (CMML). It comprises the N-terminal part of the Tel transcription factor and the transmembrane and intracellular part of the PDGF-Rβ receptor. This fusion protein is present in dimerized form (presence of an oligomerization domain in the N-terminal part of Tel) and, as a result, leads to constitutive activity of the kinase domain of PDGF-Rβ. This line BaF3 Tel/PDGF has been described in the literature several times and especially, in detailed manner, in the article by M. Carroll et al., PNAS, 1996, 93, 14845-14850.
as §1, with “The BaF3 Tel/PDGF” for “MV4-11”, “phosphate” for “PBS”, “5×10^4” for “1×10^5”, “[…]” for “μL”
It is thus seen that the compounds according to the invention have inhibitory activity on the tyrosine kinase activity of PDGF-Rβ. This activity is given by the concentration that inhibits 50% of the proliferation of the BaF3 Tel/PDGF cells (IC50).

Setting [4] is: read-out: IC50 (concentration that inhibits 50% of the proliferation of the EOL-1 cells), 72 hours incubation.
Where [5] appears, read: 72 hours incubation, read-out: IC50 (concentration that inhibits 50% of the proliferation of the EOL-1 cells).

T2 sequence (P09619 with tags, fused parts or gaps): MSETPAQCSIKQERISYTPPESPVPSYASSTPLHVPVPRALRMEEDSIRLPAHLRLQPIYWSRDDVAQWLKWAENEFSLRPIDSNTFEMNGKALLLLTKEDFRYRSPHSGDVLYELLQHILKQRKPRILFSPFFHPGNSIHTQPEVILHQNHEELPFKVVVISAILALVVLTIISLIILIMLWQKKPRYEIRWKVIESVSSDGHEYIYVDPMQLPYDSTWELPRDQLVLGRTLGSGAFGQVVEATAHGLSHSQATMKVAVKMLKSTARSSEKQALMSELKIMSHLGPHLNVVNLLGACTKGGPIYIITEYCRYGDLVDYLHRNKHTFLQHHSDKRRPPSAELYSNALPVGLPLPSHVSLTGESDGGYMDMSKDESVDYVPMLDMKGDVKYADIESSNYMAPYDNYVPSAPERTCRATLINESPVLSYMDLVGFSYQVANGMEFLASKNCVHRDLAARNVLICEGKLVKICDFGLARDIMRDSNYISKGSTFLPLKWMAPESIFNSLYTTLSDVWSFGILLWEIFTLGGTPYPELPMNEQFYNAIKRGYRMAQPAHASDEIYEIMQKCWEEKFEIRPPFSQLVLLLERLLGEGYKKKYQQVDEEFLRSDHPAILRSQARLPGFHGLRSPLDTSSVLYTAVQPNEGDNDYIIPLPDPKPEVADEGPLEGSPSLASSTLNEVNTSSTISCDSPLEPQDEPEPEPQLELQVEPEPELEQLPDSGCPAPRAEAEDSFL
Sequence of fusion protein FIP1L1-PDGF-Rα (EOL-1 cell line) (P16234 579-1089, change not shown): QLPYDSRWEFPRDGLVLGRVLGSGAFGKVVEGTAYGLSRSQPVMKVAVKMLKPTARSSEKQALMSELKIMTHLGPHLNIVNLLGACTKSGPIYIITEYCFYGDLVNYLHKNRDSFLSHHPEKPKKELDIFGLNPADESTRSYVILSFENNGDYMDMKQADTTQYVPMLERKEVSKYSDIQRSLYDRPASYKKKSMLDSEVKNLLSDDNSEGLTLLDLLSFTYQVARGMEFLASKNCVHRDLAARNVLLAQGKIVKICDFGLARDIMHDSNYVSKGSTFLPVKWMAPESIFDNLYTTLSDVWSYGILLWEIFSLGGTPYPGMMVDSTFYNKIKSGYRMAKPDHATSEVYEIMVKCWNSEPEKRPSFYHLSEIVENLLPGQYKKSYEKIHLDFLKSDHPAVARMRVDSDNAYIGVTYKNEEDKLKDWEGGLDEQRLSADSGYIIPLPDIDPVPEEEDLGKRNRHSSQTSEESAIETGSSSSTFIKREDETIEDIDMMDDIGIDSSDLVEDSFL
Sequence of fusion protein FIP1L1-PDGF-Rα (EOL-1 cell line) (Q6UN15 1-339 partner): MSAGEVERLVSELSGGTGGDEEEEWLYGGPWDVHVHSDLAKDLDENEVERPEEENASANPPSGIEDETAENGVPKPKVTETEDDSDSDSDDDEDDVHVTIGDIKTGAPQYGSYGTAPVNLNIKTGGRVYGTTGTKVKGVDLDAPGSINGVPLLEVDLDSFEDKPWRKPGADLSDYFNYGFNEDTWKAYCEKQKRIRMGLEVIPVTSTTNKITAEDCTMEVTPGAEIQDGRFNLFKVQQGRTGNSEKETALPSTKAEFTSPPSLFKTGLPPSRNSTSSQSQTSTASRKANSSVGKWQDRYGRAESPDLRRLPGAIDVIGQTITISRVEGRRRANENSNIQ

Regarding `CCn1c(N)c(C(=O)NC)c(=O)c2ccc(-c3ccc(CC(=O)Nc4cccnc4)cc3)nc21` [compound 3, 2-amino-1-ethyl-N-methyl-4-oxo-7-{4-[2-oxo-2-(pyrid-3-ylamino)ethyl]-phenyl}-1,4-dihydro-1,8-naphthyridine-3-carboxamide], the IC50 in series [1] came to 330 nM.

On to `CCn1c(N)c(C(=O)NC)c(=O)c2ccc(-c3ccc(CC(=O)Nc4ccccn4)cc3)nc21` [compound 4, 2-amino-1-ethyl-N-methyl-4-oxo-7-{4-[2-oxo-2-(pyrid-2-ylamino)ethyl]-phenyl}-1,4-dihydro-1,8-naphthyridine-3-carboxamide], for which the IC50 in series [1] turned out to be 210 nM.

Broadly, the melting point is the temperature, or range, at which the solid turns liquid. As to `CCn1c(N)c(C(=O)NC)c(=O)c2ccc(-c3ccc(CC(=O)Nc4ccccc4Cl)cc3)nc21` [compound 5, 2-amino-7-(4-{2-[(2-chlorophenyl)amino]-2-oxoethyl}phenyl)-1-ethyl-N-methyl-4-oxo-1,4-dihydro-1,8-naphthyridine-3-carboxamide], the melting point was more than 260 °C. Moreover, the IC50 in series [1] is 190 nM. For the same molecule, the IC50 in series [2] (setting [4]) worked out at 1.6 nM.

In turn, `CCn1c(N)c(C(=O)NC)c(=O)c2ccc(-c3ccc(CC(=O)Nc4cc(F)cc(F)c4)cc3)nc21` [compound 6, 2-amino-7-(4-{2-[(3,5-difluorophenyl)amino]-2-oxoethyl}phenyl)-1-ethyl-N-methyl-4-oxo-1,4-dihydro-1,8-naphthyridine-3-carboxamide] returned a melting point of more than 260 °C. For the same molecule, the IC50 in series [1] came out at 100 nM. Besides, the IC50 in series [2] (setting [4]) worked out at 0.57 nM. Further, the IC50 in series [3] was determined as 11 nM.

The molecule `CCN1CCC[C@@H]1CNC(=O)Cc1ccc(-c2ccc3c(=O)c(C(=O)NC)c(N)n(CC)c3n2)cc1` [compound 14, 2-amino-1-ethyl-7-{4-[2-({[(2R)-1-ethylpyrrolidin-2-yl]methyl}amino)-2-oxoethyl]phenyl}-N-methyl-4-oxo-1,4-dihydro-1,8-naphthyridine-3-carboxamide] displayed a melting point of 270 °C. Besides, in series [1], the IC50 was 340 nM. Besides, the IC50 in series [3] turned out to be 11 nM.

On to `CCn1c(N)c(C(=O)NC)c(=O)c2ccc(-c3ccc(CC(=O)Nc4ccncn4)cc3)nc21` [compound 16, 2-amino-1-ethyl-N-methyl-4-oxo-7-{4-[2-oxo-2-(pyrimidin-4-ylamino)-ethyl]phenyl}-1,4-dihydro-1,8-naphthyridine-3-carboxamide], for which the melting point was more than 280 °C. The IC50 in series [1] was found to be 182 nM.

In the case of `CCn1c(N)c(C(=O)NC)c(=O)c2ccc(-c3ccc(CC(=O)Nc4ccccn4)cn3)nc21` [compound 19, 2-amino-1-ethyl-N-methyl-4-oxo-7-{5-[2-oxo-2-(pyrid-2-ylamino)-ethyl]pyrid-2-yl}-1,4-dihydro-1,8-naphthyridine-3-carboxamide], the IC50 in series [1] was 100 nM; in series [2] (setting [4]) it was 0.4 nM; in series [3], 27 nM.

`CCN1CCOCC1CNC(=O)Cc1ccc(-c2ccc3c(=O)c(C(=O)NC)c(N)n(CC)c3n2)cc1` (stereo not drawn) [compound 22, 2-amino-1-ethyl-7-[4-(2-{[(4-ethylmorpholin-3-yl)methyl]amino}-2-oxoethyl)phenyl]-N-methyl-4-oxo-1,4-dihydro-1,8-naphthyridine-3-carboxamide]: the IC50 stood at 130 nM in series [1] and 0.07 nM in series [3].

`CCN1CCCC1CNC(=O)Cc1csc(-c2ccc3c(=O)c(C(=O)NC)c(N)n(CC)c3n2)n1` (stereo not drawn) [compound 43, 2-amino-1-ethyl-7-[4-(2-{[(1-ethylpyrrolidin-2-yl)methyl]amino}-2-oxoethyl)-1,3-thiazol-2-yl]-N-methyl-4-oxo-1,4-dihydro-1,8-naphthyridine-3-carboxamide]: the IC50 in series [2] (setting [5]) is 29.7 nM.

In turn, `CCN1CCCC1CNC(=O)Cc1ccc(-c2ccc3c(=O)c(C(=O)NC)c(N)n(C4CCCC4)c3n2)cc1` (stereo not drawn) [compound 50, 2-amino-1-cyclopentyl-7-[4-(2-{[(1-ethylpyrrolidin-2-yl)methyl]amino}-2-oxoethyl)phenyl]-N-methyl-4-oxo-1,4-dihydro-1,8-naphthyridine-3-carboxamide] displayed a melting point of 222 °C. Further, the IC50 in series [2] (setting [4]) amounted to 3.2 nM.

`CCN1CCCC1CNC(=O)CCCCc1ccc(-c2ccc3c(=O)c(C(=O)NC)c(N)n(CC)c3n2)cc1` (stereo not drawn) [compound 51, 2-amino-1-ethyl-7-[4-(5-{[(1-ethylpyrrolidin-2-yl)methyl]amino}-5-oxopentyl)phenyl]-N-methyl-4-oxo-1,4-dihydro-1,8-naphthyridine-3-carboxamide] returned a melting point of 180 °C. In addition, the IC50 in series [2] (setting [5]) was determined as 92.7 nM.

Values taken from US8436011B2, “Pyridinopyridinone derivatives, preparation thereof and therapeutic use thereof” (Sanofi, priority 2008, dated 2013).
